In BindingDB's records for PubMed 32163814 (n/a, 2020):

Tests used:
Histone deacetylase 6 [1] = molecular target: T1, Histone deacetylase 6 (Homo sapiens, UniProt Q9UBN7); assay: Inhibition of human recombinant HDAC6 using fluorogenic HDAC substrate measured after 20 mins by fluorescence assay
T1 sequence (Q9UBN7 whole entry): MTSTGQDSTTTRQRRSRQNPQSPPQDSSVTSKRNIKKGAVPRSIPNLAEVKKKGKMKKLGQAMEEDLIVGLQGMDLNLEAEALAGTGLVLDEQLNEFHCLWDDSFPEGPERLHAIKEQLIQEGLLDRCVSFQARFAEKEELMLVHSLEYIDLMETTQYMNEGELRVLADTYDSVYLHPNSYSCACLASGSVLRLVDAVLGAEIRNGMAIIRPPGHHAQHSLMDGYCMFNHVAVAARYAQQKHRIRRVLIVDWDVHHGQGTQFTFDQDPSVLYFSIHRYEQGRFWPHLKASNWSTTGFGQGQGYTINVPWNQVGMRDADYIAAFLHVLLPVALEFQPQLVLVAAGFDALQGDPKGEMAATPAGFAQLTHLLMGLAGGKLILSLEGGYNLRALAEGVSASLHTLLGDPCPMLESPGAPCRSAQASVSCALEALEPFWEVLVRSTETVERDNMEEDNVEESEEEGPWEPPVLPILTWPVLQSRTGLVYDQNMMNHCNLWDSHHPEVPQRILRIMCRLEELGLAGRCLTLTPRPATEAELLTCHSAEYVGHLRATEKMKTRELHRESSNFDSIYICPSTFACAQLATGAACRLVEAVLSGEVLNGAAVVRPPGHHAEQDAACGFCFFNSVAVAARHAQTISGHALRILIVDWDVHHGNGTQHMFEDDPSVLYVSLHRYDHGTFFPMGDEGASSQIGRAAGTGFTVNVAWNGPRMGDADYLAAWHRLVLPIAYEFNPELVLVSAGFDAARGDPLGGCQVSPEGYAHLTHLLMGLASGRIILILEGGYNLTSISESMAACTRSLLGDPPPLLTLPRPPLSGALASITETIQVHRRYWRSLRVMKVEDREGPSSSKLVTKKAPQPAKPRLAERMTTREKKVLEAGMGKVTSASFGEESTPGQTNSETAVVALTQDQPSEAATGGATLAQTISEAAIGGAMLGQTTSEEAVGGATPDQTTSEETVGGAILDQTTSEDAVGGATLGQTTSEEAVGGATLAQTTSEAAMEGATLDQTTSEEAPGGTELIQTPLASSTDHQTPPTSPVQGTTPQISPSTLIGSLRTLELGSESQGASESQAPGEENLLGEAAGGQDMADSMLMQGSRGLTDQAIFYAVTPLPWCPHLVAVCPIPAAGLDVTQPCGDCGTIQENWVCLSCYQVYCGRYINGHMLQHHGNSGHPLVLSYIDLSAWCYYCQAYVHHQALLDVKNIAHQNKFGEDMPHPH

Histone deacetylase 2 = Histone deacetylase 2 (Homo sapiens, UniProt Q92769); assay: Inhibition of human HDAC2 using fluorogenic as substrate measured after 30 mins by fluorescence based analysis
Sequence of Histone deacetylase 2 (Q92769 whole entry): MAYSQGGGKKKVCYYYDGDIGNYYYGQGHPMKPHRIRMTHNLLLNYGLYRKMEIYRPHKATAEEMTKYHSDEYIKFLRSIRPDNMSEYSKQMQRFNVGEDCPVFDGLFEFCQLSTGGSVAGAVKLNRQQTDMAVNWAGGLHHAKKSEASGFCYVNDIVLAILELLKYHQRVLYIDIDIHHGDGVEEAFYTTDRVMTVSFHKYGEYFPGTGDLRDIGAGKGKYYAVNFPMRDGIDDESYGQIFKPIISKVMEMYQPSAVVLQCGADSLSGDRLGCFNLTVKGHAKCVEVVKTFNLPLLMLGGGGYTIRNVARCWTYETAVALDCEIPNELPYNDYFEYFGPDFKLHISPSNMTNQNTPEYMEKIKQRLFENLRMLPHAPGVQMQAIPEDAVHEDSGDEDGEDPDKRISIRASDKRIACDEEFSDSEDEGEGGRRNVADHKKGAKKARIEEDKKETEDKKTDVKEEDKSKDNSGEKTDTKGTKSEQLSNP

Histone deacetylase 1 = Histone deacetylase 1 (Homo sapiens, UniProt Q13547); assay: Inhibition of human HDAC1 using fluorogenic as substrate measured after 30 mins by fluorescence based analysis
Sequence of Histone deacetylase 1 (Q13547 whole entry): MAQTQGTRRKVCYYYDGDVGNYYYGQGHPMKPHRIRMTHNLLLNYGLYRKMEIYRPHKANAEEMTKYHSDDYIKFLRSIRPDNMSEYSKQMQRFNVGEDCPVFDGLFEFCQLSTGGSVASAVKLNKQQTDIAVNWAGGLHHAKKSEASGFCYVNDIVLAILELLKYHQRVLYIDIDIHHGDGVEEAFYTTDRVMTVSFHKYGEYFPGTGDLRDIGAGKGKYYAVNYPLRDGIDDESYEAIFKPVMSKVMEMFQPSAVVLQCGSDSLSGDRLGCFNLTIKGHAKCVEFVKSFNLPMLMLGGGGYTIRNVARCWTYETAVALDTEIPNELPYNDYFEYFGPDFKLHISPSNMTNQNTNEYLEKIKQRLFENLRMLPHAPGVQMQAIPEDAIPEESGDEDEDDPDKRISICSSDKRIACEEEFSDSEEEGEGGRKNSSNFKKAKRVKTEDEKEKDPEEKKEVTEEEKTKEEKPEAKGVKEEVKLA

Histone deacetylase 6 [2] = molecular target: T1, Histone deacetylase 6; assay: Inhibition of human HDAC6 using fluorogenic as substrate measured after 30 mins by fluorescence based analysis
Histone deacetylase 3 = Histone deacetylase 3 (Homo sapiens, UniProt O15379); assay: Inhibition of human HDAC3 using fluorogenic as substrate measured after 30 mins by fluorescence based analysis
Sequence of Histone deacetylase 3 (O15379 whole entry): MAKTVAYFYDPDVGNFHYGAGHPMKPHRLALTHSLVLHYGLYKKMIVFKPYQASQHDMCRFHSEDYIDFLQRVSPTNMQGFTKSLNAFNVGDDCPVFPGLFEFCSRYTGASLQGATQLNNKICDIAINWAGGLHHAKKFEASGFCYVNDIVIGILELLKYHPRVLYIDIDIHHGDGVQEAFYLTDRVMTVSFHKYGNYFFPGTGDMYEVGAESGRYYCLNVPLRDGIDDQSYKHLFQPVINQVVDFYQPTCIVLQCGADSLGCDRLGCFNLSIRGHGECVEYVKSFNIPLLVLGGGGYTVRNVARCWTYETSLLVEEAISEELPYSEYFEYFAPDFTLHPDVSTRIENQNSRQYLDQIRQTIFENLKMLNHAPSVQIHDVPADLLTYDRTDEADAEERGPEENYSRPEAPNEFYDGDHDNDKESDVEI

Row | Compound | IC50 (Histone deacetylase 6 [1]) [nM] | IC50 (Histone deacetylase 2) [nM] | IC50 (Histone deacetylase 1) [nM] | IC50 (Histone deacetylase 6 [2]) [nM] | IC50 (Histone deacetylase 3) [nM]
1 | O=C(NO)c1ccc(NC(=O)[C@@H](NC(=O)c2ccc3ccccc3c2)c2ccccc2)cc1 |  | 244 | 29 | 376 | 
2 | O=C(NO)c1ccc(NC(=O)[C@@H](NS(=O)(=O)c2cccc3ccccc23)c2ccccc2)cc1 |  | 171 | 31 | 295 | 23
3 | CN(C)c1cccc2c(S(=O)(=O)N[C@H](C(=O)Nc3ccc(C(=O)NO)cc3)c3ccccc3)cccc12 |  | 107 |  | 366 | 

Results, then the compound that gave them:

Row | IC50 (Histone deacetylase 6 [1]) [nM] | IC50 (Histone deacetylase 2) [nM] | IC50 (Histone deacetylase 1) [nM] | IC50 (Histone deacetylase 6 [2]) [nM] | IC50 (Histone deacetylase 3) [nM] | Compound
4 | 294 |  |  |  |  | COc1ccccc1NC(=O)N[C@H](C(=O)Nc1ccc(C(=O)NO)cc1)c1ccccc1
5 |  | 89 |  | 196 |  | O=C(NO)c1ccc(NC(=O)[C@@H](NC(=O)c2cccc(Br)c2)c2ccccc2)cc1
